Data on 12 compounds can be found in ChEMBL document CHEMBL1201862, “PubChem BioAssay data set” (2004).

Broadly, the GI50 is the concentration at which growth is held to half of that of the control.

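Following 48 hours of exposure in 96-well plates, responses at five concentrations were used to interpolate endpoints linearly. The concentration for 50% growth inhibition is given as GI50.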 Calls of active or inactive are those of the source. Rule as the data show it: active = GI50 up to about 1.1 µM and inactive = higher. Residues, ends and D or L forms follow the SMILES beside them. *: point of attachment. Boc = CC(C)(C)OC(=O)*; Bz = O=C(c1ccccc1)* Bounds are passed on as bounds.

Some test systems named below: NCI-H23; UACC-257; RXF 393; ACHN; MDA-N; UACC-62; CAKI-1; OVCAR-8; OVCAR-4; SW-620; HT-29; HL-60; OVCAR-5; SNB-75; SN12C; HCC 2998; A498; K562; SR.
Test in all cases: DTP human tumour cell line panel, 48 h

In the case of `CC1(C)CC(=O)C(=CNC(=O)c2ccncc2)C(=O)C1`, the GI50 with NCI-H23, in the experiment with UACC-257, in the experiment on RXF 393, in the experiment on ACHN, with MDA-N and with UACC-62 was > 100 µM (inactive) in each case. For the same compound, the GI50 was > 100 µM (inactive) in the experiment with CAKI-1; > 100 µM (inactive) with OVCAR-8; > 100 µM (inactive) in the experiment with OVCAR-4; > 100 µM (inactive) in the experiment with SW-620; > 100 µM (inactive) with HT-29; 71.3 µM (inactive) in the experiment on HL-60. Besides, the GI50 in the experiment on OVCAR-5, in the experiment with SNB-75, with SN12C and with HCC 2998 was > 100 µM (inactive) throughout.

As for `Cc1c2c(OCC(O)CN3CCN(c4ccccc4)CC3)nn(C)c(=O)c2c(C)n1-c1ccccc1` (stereo not given), the GI50 in the experiment on NCI-H23 is 20.5 µM (inactive); in the experiment with UACC-257, 28 µM (inactive); in the experiment on RXF 393, 26.9 µM (inactive); with ACHN it was 20.6 µM (inactive); in the experiment on MDA-N it was 19.1 µM (inactive); in the experiment with UACC-62 it was 17.1 µM (inactive). Moreover, the GI50 was 31.6 µM (inactive) in the experiment on CAKI-1; 33 µM (inactive) in the experiment with OVCAR-8; 30.3 µM (inactive) in the experiment with OVCAR-4; 29.9 µM (inactive) in the experiment with SW-620; 22.7 µM (inactive) in the experiment on HT-29; 20.1 µM (inactive) in the experiment with HL-60. The GI50 is 20.3 µM (inactive) with A498; 23.4 µM (inactive) with OVCAR-5; 19.8 µM (inactive) in the experiment on SNB-75; 18.5 µM (inactive) in the experiment on SN12C; 27 µM (inactive) in the experiment with K562; 29.7 µM (inactive) in the experiment on HCC 2998.

As to `O=C1O/C(=C\C=C\CO)C=C1/C=C/CO` [LISSOCLINOLIDE], the GI50 in the experiment on NCI-H23 was 18.5 µM (inactive); in the experiment with RXF 393 it was 19 µM (inactive); in the experiment on ACHN, 24.2 µM (inactive); with MDA-N, 21.3 µM (inactive); with UACC-62, 18.9 µM (inactive); with CAKI-1, 14.5 µM (inactive). For the same compound, the GI50 in the experiment on SR is 34.9 µM (inactive); with OVCAR-8 it was 19.2 µM (inactive); in the experiment with OVCAR-4 it was 45.5 µM (inactive); in the experiment on SW-620, 18.2 µM (inactive); in the experiment on HT-29, 23 µM (inactive); in the experiment with HL-60, 29.3 µM (inactive). In addition, the GI50 was 20 µM (inactive) with OVCAR-5, > 100 µM (inactive) in the experiment on SNB-75, 27.9 µM (inactive) in the experiment with SN12C and 31.2 µM (inactive) in the experiment on K562.

As for `CC1=CC(=O)C(=C(C)C)CC1`, the GI50 in the experiment with NCI-H23 was > 100 µM (inactive); in the experiment on UACC-257, > 100 µM (inactive); in the experiment on RXF 393, 26.1 µM (inactive); in the experiment on ACHN it was > 100 µM (inactive); in the experiment on MDA-N, > 100 µM (inactive); in the experiment with UACC-62 it was > 100 µM (inactive). Moreover, the GI50 in the experiment with CAKI-1 is > 100 µM (inactive); with SR, 48 µM (inactive); with OVCAR-8 it was > 100 µM (inactive); in the experiment on OVCAR-4, > 100 µM (inactive); with HT-29, > 100 µM (inactive); in the experiment on HL-60 it was 53.6 µM (inactive). Besides, the GI50 with OVCAR-5, with SNB-75, in the experiment on SN12C and in the experiment with K562 was > 100 µM (inactive) in each case.

Regarding `CC(NC(=O)C(Cc1ccc(OC(=O)c2ccccc2)cc1)NC(=O)OC(C)(C)C)C(=O)NC(Cc1ccccc1)C(=O)NCC(N)=O` (stereo not given) (Boc-Y(Bz)AFG-NH2; configuration not given here), the GI50 with NCI-H23 is 23.2 µM (inactive); with UACC-257 it was 19.1 µM (inactive); with RXF 393, 20.9 µM (inactive); in the experiment on ACHN, 23 µM (inactive); in the experiment on MDA-N, 25.8 µM (inactive); in the experiment on UACC-62, 18.8 µM (inactive). For the same compound, the GI50 in the experiment with CAKI-1 was > 100 µM (inactive); in the experiment on OVCAR-8, 24.7 µM (inactive); in the experiment on OVCAR-4 it was 20.9 µM (inactive); in the experiment on SW-620 it was 31.1 µM (inactive); in the experiment with HT-29 it was 19.1 µM (inactive); in the experiment with HL-60, 25.6 µM (inactive). Besides, the GI50 is 21.6 µM (inactive) with A498; 24.4 µM (inactive) with OVCAR-5; 22.8 µM (inactive) with SNB-75; 21.1 µM (inactive) in the experiment on SN12C; 25.8 µM (inactive) in the experiment with K562; 20.2 µM (inactive) in the experiment on HCC 2998.

Regarding `c1ccc2c(c1)/C(=N\NC1=NCCN1)c1nc3ccccc3nc1-2`, the GI50 is 8.73 µM (inactive) in the experiment on NCI-H23; 5.31 µM (inactive) in the experiment with UACC-257; 2.71 µM (inactive) in the experiment with RXF 393; 3.21 µM (inactive) with ACHN; 7.19 µM (inactive) with MDA-N; 2.49 µM (inactive) with UACC-62. For the same compound, the GI50 in the experiment on SR was 3.98 µM (inactive); in the experiment with OVCAR-8 it was 1.35 µM (inactive); in the experiment with OVCAR-4, 17.6 µM (inactive); in the experiment on SW-620, 1.36 µM (inactive); with HT-29 it was 0.521 µM (active); in the experiment with HL-60, 3.83 µM (inactive). For the same compound, the GI50 in the experiment with OVCAR-5 is 6.64 µM (inactive); in the experiment with SNB-75, 0.923 µM (active); with SN12C it was 8.51 µM (inactive); in the experiment with K562, 4.52 µM (inactive); in the experiment on HCC 2998, 4.91 µM (inactive).

With `CCOC(=O)/C=C(\C)Sc1cc(O)c2ccccc2c1O`, the GI50 with NCI-H23 was 30.4 µM (inactive); in the experiment with UACC-257 it was 18.8 µM (inactive); in the experiment with RXF 393 it was 14.9 µM (inactive); with ACHN, 13.8 µM (inactive); in the experiment with UACC-62, 31.1 µM (inactive); with CAKI-1 it was 23.5 µM (inactive). For the same compound, the GI50 in the experiment on SR was 7.62 µM (inactive); in the experiment with OVCAR-8, 16.5 µM (inactive); with OVCAR-4, 16.1 µM (inactive); with SW-620, 5.08 µM (inactive); with HT-29 it was 22.2 µM (inactive); in the experiment with HL-60, 3.77 µM (inactive). In addition, the GI50 in the experiment with A498 is 18.5 µM (inactive); in the experiment on OVCAR-5 it was 24.4 µM (inactive); in the experiment on SNB-75, 10.1 µM (inactive); with SN12C it was 29.2 µM (inactive); in the experiment on K562, 5.51 µM (inactive); in the experiment on HCC 2998, 8.97 µM (inactive).

In the case of `COc1cc([C@@H]2OC[C@@H]3C(c4cc(OC)c5c(c4)OCO5)OC[C@@H]32)cc(OC)c1OC` (stereo not given in full), the GI50 in the experiment with NCI-H23 was > 100 µM (inactive); in the experiment with UACC-257, > 100 µM (inactive); in the experiment with ACHN it was > 100 µM (inactive); in the experiment on UACC-62, 49.1 µM (inactive); in the experiment with CAKI-1, > 100 µM (inactive); with SR, 89.1 µM (inactive). For the same compound, the GI50 is 69.8 µM (inactive) in the experiment on OVCAR-8; 92.5 µM (inactive) in the experiment on OVCAR-4; > 100 µM (inactive) with SW-620; 42.2 µM (inactive) in the experiment on HT-29; > 10 µM (inactive) in the experiment with HL-60; > 100 µM (inactive) with A498. Also, the GI50 in the experiment on OVCAR-5, with SNB-75, in the experiment with K562 and in the experiment with HCC 2998 was > 100 µM (inactive) each time.

Regarding `CCOC(=O)N/N=C(\Cc1ccccc1)OCC`, the GI50 in the experiment with NCI-H23, with UACC-257, in the experiment on RXF 393, with ACHN, in the experiment on MDA-N and with UACC-62 was > 100 µM (inactive) throughout. Further, the GI50 in the experiment with SR, in the experiment on OVCAR-8, in the experiment on OVCAR-4, with SW-620, in the experiment with HT-29 and with OVCAR-5 was > 100 µM (inactive) each time. The GI50 with SNB-75, in the experiment with SN12C, in the experiment on K562 and in the experiment with HCC 2998 was > 100 µM (inactive) each time.

As to `S=C(N1CCN(c2ccccc2)CC1)N1CCN(c2ccccc2)CC1`, the GI50 in the experiment on NCI-H23 was > 100 µM (inactive); in the experiment on UACC-257 it was > 100 µM (inactive); with RXF 393, > 100 µM (inactive); in the experiment with ACHN, > 100 µM (inactive); in the experiment on MDA-N, 89.5 µM (inactive); in the experiment on UACC-62, > 100 µM (inactive). For the same compound, the GI50 with CAKI-1 is > 100 µM (inactive); with OVCAR-8, > 100 µM (inactive); with OVCAR-4, > 100 µM (inactive); with SW-620, > 100 µM (inactive); in the experiment with HT-29, 55.2 µM (inactive); with A498, > 100 µM (inactive). Also, the GI50 in the experiment on OVCAR-5 is > 100 µM (inactive); in the experiment with SNB-75, 27.2 µM (inactive); with SN12C, > 100 µM (inactive); in the experiment with K562 it was > 100 µM (inactive); with HCC 2998 it was > 100 µM (inactive).

On to `O=C(/C=C/c1csc(-c2ccccc2)n1)NCc1ccc(C(=O)NCc2ccccc2)cc1`, for which the GI50 in the experiment on NCI-H23 is > 100 µM (inactive); with UACC-257, > 100 µM (inactive); in the experiment with RXF 393, 61 µM (inactive); in the experiment on ACHN, 67.1 µM (inactive); in the experiment with UACC-62 it was > 100 µM (inactive); in the experiment with CAKI-1 it was 25.2 µM (inactive). In addition, the GI50 is > 100 µM (inactive) with SR; 26.4 µM (inactive) with OVCAR-8; > 100 µM (inactive) in the experiment with OVCAR-4; > 100 µM (inactive) in the experiment with SW-620; 41.2 µM (inactive) in the experiment with HT-29; 64.9 µM (inactive) with A498. Further, the GI50 with OVCAR-5 is > 100 µM (inactive); in the experiment with SNB-75 it was 19.2 µM (inactive); with SN12C it was > 100 µM (inactive); with K562, > 100 µM (inactive); with HCC 2998, > 100 µM (inactive).

For `COc1cccc(/C=C2/Sc3scc(-c4ccccc4)[n+]3C2=O)c1O`, the GI50 in the experiment on NCI-H23 is 17.3 µM (inactive); with UACC-257, 19.7 µM (inactive); in the experiment with RXF 393 it was 14.4 µM (inactive); with ACHN, 18.4 µM (inactive); in the experiment with UACC-62 it was 15.5 µM (inactive); in the experiment with CAKI-1, 21.3 µM (inactive). Besides, the GI50 in the experiment with OVCAR-8 is 17.5 µM (inactive); in the experiment with OVCAR-4, 29.6 µM (inactive); in the experiment on SW-620 it was 18.1 µM (inactive); in the experiment on HT-29, 20.8 µM (inactive); in the experiment with HL-60 it was 11.9 µM (inactive); in the experiment with OVCAR-5, 36.7 µM (inactive). For the same compound, the GI50 was 28.6 µM (inactive) with SNB-75, 17.9 µM (inactive) with SN12C and 16.6 µM (inactive) in the experiment with HCC 2998.
